Assay results from US6566327B1, “Histogranin peptides and their analgesic use” (University of Ottawa, priority 1997, dated 2003).
Marks after values point to notes of the source that are not given here. Square brackets hold non-standard residues; d marks the D form. Peptide text beside a SMILES is read from it.

How the values were obtained:
[1] = tested on: Male Swiss Webster mice; test: Mouse acetic acid-induced writhing test (i.c.v. peptides); type: in vivo; conditions: for Potency ratio (95% CL): as compared with HN; for ED50 (nmol/mouse) (95% CL): method #1, percent of mice showing analgesia; for ED50 (nmol/mouse) (95% CL) / AD50 (nmol/mouse) (95% CL): acetic acid i.p. 5 min after peptide, 95% CL in brackets; for AD50 (nmol/mouse) (95% CL): method #2, percent analgesia
Description: Mice (male 20-25 g, Swiss Webster) were obtained from Charles River (Canadian Breeding Farm, St. Constant, Quebec). They were housed five per cage in a room with controlled temperature (22±2° C.), humidity and artificial light (06.30-19 h). […] The experiments were authorized by the animal care committee of the University of Ottawa in accordance […] guidelines of the Canadian Council on Animal Care. The i.c.v. administrations of the peptides were performed as described by Shukla et al. (Shukla et al., Brain Res. 591, 176, 1992 the disclosure of which is incorporated by reference). Peptides were dissolved in double-distilled sterile water (vehicle) and 10 μl of the peptide solution or vehicle was delivered gradually within approximately 3 sec. […] The administration site was confirmed by injecting Indian ink in preliminary experiments. Mouse Writhing Test: Antinociceptive activity of the peptides was evaluated using the acetic acid-induced writhing test according to a modification (Shukla et al. Brain Research 591, 176, 1992 the disclosure of which is incorporated by reference) of the method of Hayashi and Takemori (Eur.J. Pharmacol. 16 63, 1971 the disclosure of which is incorporated by reference). […] An abdominal stretch is characterized by the contraction of the abdominal muscles, the arching of the back vent-ally such that the abdomen touches the bedding surface and the extension of one or both hind limbs. Mice were used once and then killed immediately. Groups of 10 mice were used for each dose. […] Biochem. Psycholpharmacol. 8:191, 1974, the disclosure of which is incorporated by reference). […] Pharmacol. Exp. Ther. 96 99, 1949, the disclosure of which is incorporated by reference) using procedure 47 of the computer program of Tallarida and Murray (in “Manual of pharmacological calculations with computer programs”, 2nd ed., Springer, New York, 1987, the disclosure of which is incorporated by reference). In the second case (method #2), the percentage of analgesia is calculated for each dose by the formula: [(mean number of writhes in control group-mean number of writhes for the test group)/(mean number of writhes in control group)×100]. […] Pharmacol. Exp. Ther 96, 99, 1949 the disclosure in which is incorporated by reference) using procedure 47 of the computer program of Tallarida and Murray (in “Manual of pharmacological calculations with computer programs”. 2nd ed., Springer, New York, 1987, the disclosure in which is incorporated by reference).

[2] = Solubility noted in the compound description; type: physicochemical; conditions: water and DMSO

Molecule	Potency ratio (95% CL) ([1]; method #1 (ED50))	Potency ratio (95% CL) ([1]; method #2 (AD50))	ED50 (nmol/mouse) (95% CL) [1]	AD50 (nmol/mouse) (95% CL) [1]	Solubility [2]
H-RQGRTLYGF-OH [Peptide 13]	3.0 (0.8-11.2)	2.43 (0.2-18)	7.5 (2.3 -24.4) nmol/mouse	9.7 (2.5-37.4) nmol/mouse	
C[C@@H]1NC(=O)[C@H](CCC(N)=O)NC(=O)[C@H](CCCNC(=N)N)NC(=O)[C@H](CCCNC(=N)N)NC(=O)[C@H](C)NC(=O)[C@H](CCC(N)=O)NC(=O)[C@H](CCCNC(=N)N)NC(=O)[C@H](CCCNC(=N)N)NC1=O [Peptide 6B] (cyclo(ARRQARRQ))					Soluble in water and DMSO
C[C@@H]1NC(=O)[C@H](CCC(N)=O)NC(=O)CNC(=O)[C@H](CCCNC(=N)N)NC1=O [Peptide 5, cyclic(-Gly-Gln-Ala-Arg-)] (cyclo(ARGQ))	7.7 (1.3-46.6)	1.77 (0.11-28.1)	2.9 (0.8 -9.8) nmol/mouse	13.3 (1.6-114) nmol/mouse	Soluble in water and DMSO
C[C@@H]1NC(=O)[C@H](CCC(N)=O)NC(=O)[C@H](CCCNC(=N)N)NC(=O)[C@H](CCCNC(=N)N)NC1=O [Peptide 6, cyclic(-Arg-Gln-Ala-Arg-)]		0.94 (0.22-3.98)		25.1 (11.3-55.6) nmol/mouse	Soluble in water and DMSO
N=C(N)NCCC[C@H](NC(=O)CNC(=O)[C@H](CCC(N)=O)NC(=O)CN)C(=O)O [Peptide 2, H-Gly-Gln-Gly-Arg-OH] (H-GQGR-OH)	2.0 (0.6-6.3)	0.91 (0.11-7.63)	11.3 (4.2-30.4) nmol/mouse	25.9 (5.9-113) nmol/mouse	Soluble in water and DMSO
C[C@H](NC(=O)[C@H](CCC(N)=O)NC(=O)[C@@H](N)CCCNC(=N)N)C(=O)N[C@@H](CCCNC(=N)N)C(=O)O [Peptide 4, H-Arg-Gln-Ala-Arg-OH]	4.5 (1.4-14.3)	1.86 (0.27-12.8)	4.9 (1.8-13.2) nmol/mouse	12.7 (3.5-46.1) nmol/mouse	Soluble in water and DMSO
N=C(N)NCCC[C@H](NC(=O)CNC(=O)[C@H](CCC(N)=O)NC(=O)[C@@H](N)CCCNC(=N)N)C(=O)O [Peptide 1, H-Arg-Gln-Gly-Arg-OH] (H-RQGR-OH)		1.84 (0.3-12.5)		12.8 (3.6-46.1) nmol/mouse	soluble in water and DMSO
C[C@@H]1NC(=O)[C@H](CCC(N)=O)NC(=O)CNC(=O)[C@H](CCCNC(=N)N)NC(=O)[C@H](C)NC(=O)[C@H](CCC(N)=O)NC(=O)CNC(=O)[C@H](CCCNC(=N)N)NC1=O [Peptide 5B] (cyclo(ARGQARGQ))		0.93 (0.22-3.9)		25.3 (11.6-55.1) nmol/mouse	Soluble in water and DMSO
N=C(N)NCCC[C@@H]1NC(=O)[C@H](Cc2ccc(O)cc2)NC(=O)[C@H](CCC(N)=O)NC(=O)CNC1=O [Peptide 7, cyclic(-Gly-Gln-Tyr-Arg-)] (cyclo(GQYR))		5.6 (1.25-25)*		4.21 (1.80-9.87) nmol/mouse	
N=C(N)NCCC[C@H]1NC(=O)[C@H](Cc2ccc(O)cc2)NC(=O)[C@@H](CCC(N)=O)NC(=O)CNC1=O [Peptide 9, cyclic(-Gly-D-Gln-Tyr-D-Arg-)] (cyclo(G[dQ]Y[dR]))		10.6 (3.6-31.0)*		2.23 (1.45-3.43) nmol/mouse	
NC(=O)CC[C@H]1NC(=O)CNC(=O)[C@@H](CCCN=C(N)N)NC(=O)[C@H](Cc2ccc(O)cc2)NC1=O [Peptide 9, cyclic(-Gly-D-Gln-Tyr-D-Arg-)] (cyclo(G[dQ]Y[dR]))					Soluble in water and DMSO
N=C(N)NCCC[C@H]1NC(=O)[C@H](Cc2ccc(O)cc2)NC(=O)[C@H](CCC(N)=O)NC(=O)CNC1=O [Peptide 8, cyclic(-Gly-Gln-Tyr-D-Arg-)] (cyclo(GQY[dR]))		5.35 (1.04-26.4)*		4.41 (1.7-11.9) nmol/mouse	
NC(=O)CC[C@@H]1NC(=O)CNC(=O)[C@H](CCCN=C(N)N)NC(=O)[C@H](Cc2ccc(O)cc2)NC1=O [Peptide 7, cyclic(-Gly-Gln-Tyr-Arg-)] (cyclo(GQYR))					Soluble in water and DMSO
C[C@H](NC(=O)[C@H](CCC(N)=O)NC(=O)CN)C(=O)N[C@@H](CCCN=C(N)N)C(=O)O [Peptide 3, H-Gly-Gln-Ala-Arg-OH] (H-GQAR-OH)					Soluble in water and DMSO
C[C@H](NC(=O)[C@H](CCC(N)=O)NC(=O)CN)C(=O)N[C@@H](CCCNC(=N)N)C(=O)O [Peptide 3, H-Gly-Gln-Ala-Arg-OH] (H-GQAR-OH)	5.7 (2.0-15.9)	6.92 (0.84-56.2)*	3.9 (1.7-9.1) nmol/mouse	3.41 (0.8-14.6) nmol/mouse	
